From patent publication US12226476B2, “Helper epitope peptide and application thereof” (CHINA PHARMACEUTICAL UNIVERSITY, priority 2018, dated 2025)
Non-standard residues stand in square brackets, D forms with d. No end group written: not given here. Phe(4-NO2) = N[C@@H](Cc1ccc([N+](=O)[O-])cc1)C(=O)O

Tests used:
Assay type in all cases: in vivo
B epitope SEQ ID NO: 43 = assay: Antibody titer in serum of immunized mice, indirect ELISA; settings: FIG. 23; compared with the B epitope SEQ ID NO: 43 group and the B epitope SEQ ID NO: 43-PADRE group; mice immunized subcutaneously, 50 μg, Freund's adjuvant
Experimental: (§1) The protocol is as follows: • (1) The helper epitope was connected to individual antigens or antigen epitope with the linking peptide to construct multiple fusion antigens. The sequence of the linking peptide is GPSL (i.e. Gly-Pro-Ser-Leu) (SEQ ID NO:51). • (2) The fusion antigens from (1) were emulsified adequately with complete Freund's adjuvant of the same volume. Then to immunize mice via subcutaneous injection with the emulsion at the dose of 50 μg per mouse. The strains of experimental mice including C57, Fvb and Balb/C. After 7 days and 14 days of first immunization, the fusion antigens from (1) were emulsified adequately with incomplete Freund's adjuvant of the same volume and then to immunize mice via subcutaneous injection with the emulsion at the dose of 50 μg per mouse. • (3) There are two detection methods. […] Then the antibody titer is detected by indirect ELISA. […] PBMC (peripheral blood mononuclear cells) are isolated, and the CTL-mediated cytotoxicity is detected by LDH (lactate dehydrogenase) kit. […]
(§2) Method 1: The whole blood was collected every week after immunization and centrifugated at 6000 rpm for 20 min to obtain the serum for a total of 4 weeks. Antibody titers were detected by indirect ELISA as follows: • (1) Coating: the existing antigen or antigen epitope was diluted to 5 μg/mL with coating solution. […]

Aβ protein-42 = assay: as above; settings: FIG. 24; compared with the Aβ protein-42 group and the Aβ protein-PADRE group; mice immunized subcutaneously, 50 μg, Freund's adjuvant
Experimental: as §1, §2

target cells = assay: CTL-mediated cytotoxicity of PBMC from spleen of immunized mice, LDH kit; settings: one week after last immunization
Experimental: The protocol is as follows: • (1) The helper epitope was connected to individual antigens or antigen epitope with the linking peptide to construct multiple fusion antigens. The sequence of the linking peptide is GPSL (i.e. Gly-Pro-Ser-Leu) (SEQ ID NO:51). • (2) The fusion antigens from (1) were emulsified adequately with complete Freund's adjuvant of the same volume. Then to immunize mice via subcutaneous injection with the emulsion at the dose of 50 μg per mouse. The strains of experimental mice including C57, Fvb and Balb/C. After 7 days and 14 days of first immunization, the fusion antigens from (1) were emulsified adequately with incomplete Freund's adjuvant of the same volume and then to immunize mice via subcutaneous injection with the emulsion at the dose of 50 μg per mouse. • (3) There are two detection methods. One is to obtain the orbital blood of immunized mice on 7, 14, 21 and 28 day respectively, centrifuge the whole blood to get the serum. Then the antibody titer is detected by indirect ELISA. The other one is: one week after the last immunization, the mice are killed to get the spleen. PBMC (peripheral blood mononuclear cells) are isolated, and the CTL-mediated cytotoxicity is detected by LDH (lactate dehydrogenase) kit.
The first step was to construct the fusion antigen. […]
Method 2: one week after last immunization, mice were sacrificed, and spleen was taken; then PBMC (peripheral blood mononuclear cells) were isolated, and the CTL-mediated cytotoxicity was detected by LDH (lactate dehydrogenase) kit. • (1) Setting control: The control group was divided into effector cell spontaneous release group, experimental group, target cell spontaneous release group, target cell maximum release group, volume correction control group and background control group; • (2) The cells were centrifuged at 250 g for 4 minutes to make the effector cells fully contact with the target cells; • (3) The detection plate was incubated with 5% CO2 at 37° C. for 4 hours; 10 μL of Lysis buffer was added to every 100 μL medium (10×) in the target cell maximum release group. […]

“FLPESFDGDPASNTAPLQPEGPSLAKFXAAWTLKAAA (FLPESFDGDPASNTAPLQPEGPSLAKF[Phe(4-NO2)]AAWTLKAAA) [B epitope+3 pPhe-PADRE]” was tested, and the antibody titers (B epitope SEQ ID NO: 43) was “significant increase”.
For “LVFFAEDVGSNKGAIIGLMVGGVVIAGPSLAKFVAXWTLKAAA (LVFFAEDVGSNKGAIIGLMVGGVVIAGPSLAKFVA[Phe(4-NO2)]WTLKAAA) [A-beta protein-6pPhe-PADRE]”, the antibody titers (Aβ protein-42) was “significant increase”.
For “TGYLYISAGPSLAXFVAAWTLKAAA (TGYLYISAGPSLA[Phe(4-NO2)]FVAAWTLKAAA) [epitope 2+2p-PADRE]”, the CTL-mediated cytotoxicity (target cells; FIG. 21, compared with the epitope SEQ ID NO:41 group and the epitope SEQ ID NO: 41-PADre group) was “significantly enhanced”.
In the case of “VLDNGDPLGPSLTGYLYISAGPSLAKXVAAWTLKAAA (VLDNGDPLGPSLTGYLYISAGPSLAK[Phe(4-NO2)]VAAWTLKAAA) [epitope 3+3p-PADRE]”, the CTL-mediated cytotoxicity (target cells; FIG. 22, compared with the epitope SEQ ID NO:42 group and the epitope SEQ ID NO: 42-PADre group) is reported as “significantly enhanced”.
For “VLDNGDPLGPSLXKFVAAWTLKAAA (VLDNGDPLGPSL[Phe(4-NO2)]KFVAAWTLKAAA) [epitope 1+1p-PADRE]”, the CTL-mediated cytotoxicity (target cells; FIG. 20, compared with the epitope SEQ ID NO:40 group and the epitope SEQ ID NO: 40-PADre group) was “significantly enhanced”.
